Common to all, as to assay: relative viability (nuclei count vs DMSO), 5 days (fraction); higher = more cells survive
Compound in the experiment “OSI-027 + Phenformin”: COc1cccc2cc(-c3nc([C@H]4CC[C@H](C(=O)O)CC4)n4ncnc(N)c34)[nH]c12 [OSI-027] + N=C(N)NC(=N)NCCc1ccccc1 [Phenformin] (partner 250 µM)
In a few lines:
(§1)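 Lung cancer cell lines in 1536-well plates got either a single drug or a fixed anchor-drug dose together with five library-drug doses (not always all listed) in √10 steps, by pin tool, on the day after seeding. Nuclei were counted after 5 days, and relative viability is the treated-to-vehicle ratio of nuclei counts. Values are medians of duplicate plates.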

Compound in the experiment “Vemurafenib + Lapatinib”: CCCS(=O)(=O)Nc1ccc(F)c(C(=O)c2c[nH]c3ncc(-c4ccc(Cl)cc4)cc23)c1F [Vemurafenib] + CS(=O)(=O)CCNCc1ccc(-c2ccc3ncnc(Nc4ccc(OCc5cccc(F)c5)c(Cl)c4)c3c2)o1 [Lapatinib] (partner 2 µM)
In short, it runs like this:
as §1

Compound in the experiment “OSI-027 + Decitabine”: COc1cccc2cc(-c3nc([C@H]4CC[C@H](C(=O)O)CC4)n4ncnc(N)c34)[nH]c12 [OSI-027] + Nc1ncn([C@H]2C[C@H](O)[C@@H](CO)O2)c(=O)n1 [Decitabine] (partner 2 µM)
In short, it runs like this: as §1

Compound in the experiment “OSI-027 + Vorinostat”: COc1cccc2cc(-c3nc([C@H]4CC[C@H](C(=O)O)CC4)n4ncnc(N)c34)[nH]c12 [OSI-027] + O=C(CCCCCCC(=O)Nc1ccccc1)NO [Vorinostat] (partner 1 µM)
In a few lines: as §1

As to 201T, the relative viability was found to be 0.477 with OSI-027 + Phenformin (first compound 0.01 µM); 0.45 with OSI-027 + Phenformin (first compound 0.03162 µM); 0.445 with OSI-027 + Phenformin (first compound 0.1 µM); 0.407 with OSI-027 + Phenformin (first compound 0.3162 µM); 0.371 with OSI-027 + Phenformin (first compound 1 µM); 0.965 in the experiment with Vemurafenib + Lapatinib (first compound 0.03162 µM). Besides, the relative viability came to 1.02 with Vemurafenib + Lapatinib (first compound 0.1 µM); 1.02 with Vemurafenib + Lapatinib (first compound 0.3162 µM); 1.04 with Vemurafenib + Lapatinib (first compound 1 µM); 0.885 with OSI-027 + Decitabine (first compound 0.01 µM); 0.832 with OSI-027 + Decitabine (first compound 0.03162 µM); 0.842 with OSI-027 + Decitabine (first compound 0.1 µM). The relative viability was determined as 0.887 with OSI-027 + Decitabine (first compound 0.3162 µM); 0.8 with OSI-027 + Decitabine (first compound 1 µM); 0.938 with OSI-027 + Vorinostat (first compound 0.01 µM); 0.934 with OSI-027 + Vorinostat (first compound 0.03162 µM); 0.961 with OSI-027 + Vorinostat (first compound 0.1 µM); 0.952 with OSI-027 + Vorinostat (first compound 0.3162 µM). Further, the relative viability with OSI-027 + Vorinostat (first compound 1 µM) worked out at 0.828.
As for A549, the relative viability in the experiment with OSI-027 + Phenformin (first compound 0.01 µM) stood at 0.176; with OSI-027 + Phenformin (first compound 0.03162 µM), 0.154; with OSI-027 + Phenformin (first compound 0.1 µM), 0.122; with OSI-027 + Phenformin (first compound 0.3162 µM), 0.171; with OSI-027 + Phenformin (first compound 1 µM) it was 0.0806; with Vemurafenib + Lapatinib (first compound 0.03162 µM), 0.902. For the same cell line, the relative viability in the experiment with Vemurafenib + Lapatinib (first compound 0.1 µM) is 0.964; with Vemurafenib + Lapatinib (first compound 0.3162 µM), 1.06; with Vemurafenib + Lapatinib (first compound 1 µM) it was 1.07; with OSI-027 + Decitabine (first compound 0.01 µM), 0.301; with OSI-027 + Decitabine (first compound 0.03162 µM), 0.256; with OSI-027 + Decitabine (first compound 0.1 µM) it was 0.272. Also, the relative viability with OSI-027 + Decitabine (first compound 0.3162 µM) was 0.319; with OSI-027 + Decitabine (first compound 1 µM), 0.102.
In the case of A-427, the relative viability with OSI-027 + Phenformin (first compound 0.01 µM) came out at 0.296; in the experiment with OSI-027 + Phenformin (first compound 0.03162 µM), 0.332; with OSI-027 + Phenformin (first compound 0.1 µM), 0.289; with OSI-027 + Phenformin (first compound 0.3162 µM) it was 0.269; in the experiment with OSI-027 + Phenformin (first compound 1 µM), 0.297; with Vemurafenib + Lapatinib (first compound 0.03162 µM), 0.907. The relative viability in the experiment with Vemurafenib + Lapatinib (first compound 0.1 µM) was determined as 1.07; with Vemurafenib + Lapatinib (first compound 0.3162 µM), 0.973; in the experiment with Vemurafenib + Lapatinib (first compound 1 µM), 1.04; with OSI-027 + Decitabine (first compound 0.01 µM), 0.522; in the experiment with OSI-027 + Decitabine (first compound 0.03162 µM) it was 0.59; in the experiment with OSI-027 + Decitabine (first compound 0.1 µM) it was 0.469. The relative viability with OSI-027 + Decitabine (first compound 0.3162 µM) was found to be 0.484; with OSI-027 + Decitabine (first compound 1 µM) it was 0.37; with OSI-027 + Vorinostat (first compound 0.01 µM), 0.886; with OSI-027 + Vorinostat (first compound 0.03162 µM), 0.844; with OSI-027 + Vorinostat (first compound 0.1 µM) it was 0.78; with OSI-027 + Vorinostat (first compound 0.3162 µM), 0.721. In the experiment with OSI-027 + Vorinostat (first compound 1 µM), the relative viability worked out at 0.542.
Turning to ABC-1, the relative viability amounted to 0.237 with OSI-027 + Phenformin (first compound 0.01 µM); 0.244 with OSI-027 + Phenformin (first compound 0.03162 µM); 0.236 with OSI-027 + Phenformin (first compound 0.1 µM); 0.2 with OSI-027 + Phenformin (first compound 0.3162 µM); 0.197 with OSI-027 + Phenformin (first compound 1 µM); 1.19 in the experiment with Vemurafenib + Lapatinib (first compound 0.03162 µM). Besides, the relative viability with Vemurafenib + Lapatinib (first compound 0.1 µM) is 0.991; in the experiment with Vemurafenib + Lapatinib (first compound 0.3162 µM) it was 1.35; in the experiment with Vemurafenib + Lapatinib (first compound 1 µM), 0.973; with OSI-027 + Decitabine (first compound 0.01 µM) it was 1.03; in the experiment with OSI-027 + Decitabine (first compound 0.03162 µM), 1.33; in the experiment with OSI-027 + Decitabine (first compound 0.1 µM) it was 1.16. Further, the relative viability with OSI-027 + Decitabine (first compound 0.3162 µM) was found to be 1.05; with OSI-027 + Decitabine (first compound 1 µM) it was 0.762; in the experiment with OSI-027 + Vorinostat (first compound 0.01 µM) it was 0.764; with OSI-027 + Vorinostat (first compound 0.03162 µM), 1.19; with OSI-027 + Vorinostat (first compound 0.1 µM), 0.66; with OSI-027 + Vorinostat (first compound 0.3162 µM), 0.67. Moreover, in the experiment with OSI-027 + Vorinostat (first compound 1 µM), the relative viability amounted to 0.758.

The values above are taken from the supplement of paper PMC10307832.
